Measurements reported in US9120749B2, “Quinoline derivatives and MELK inhibitors containing the same” (ONCOTHERAPY SCIENCE, INC., priority 2010, dated 2015).

Columns and labels:
MELK = MELK (Homo sapiens, UniProt Q14680); test: Kinase assay: MELK activity, phosphorylation of FITC-labeled histone H3 peptide measured by IMAP fluorescence polarization; assay type: biochemical; settings: read-out: IC50 (μM) (kinase assay)
How it was run: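 A FITC-labelled histone H3 peptide served as substrate, with compounds serially diluted to 1% DMSO final. Reactions were stopped with three volumes of IMAP progressive binding solution. After 0.5 h at room temperature, fluorescence polarization was read.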

T47D cells = test: Cell-based assay: anti-proliferative activity, Cell Counting Kit-8, 72 hours (T47D); settings: Homo sapiens, T47D, 72 h
How it was run: (§1)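 T47D, A549 and BT-549 cells, with MELK-negative HT-1197 as control (MELK status checked by western blot), seeded at 2,000–3,000 cells/well. Growth measured by CCK-8 72 hours after inhibitor exposure; IC50 values calculated.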

A549 cells = test: Cell-based assay: anti-proliferative activity, Cell Counting Kit-8, 72 hours (A549); settings: Homo sapiens, A549, 72 h, 72 hours
How it was run: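 A549 cells were seeded in 96-well plates and exposed to candidate inhibitors for 72 hours. Cell growth was then measured with Cell Counting Kit-8, and IC50 values were calculated from the resulting growth data.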

HT-1197 cells = test: Cell-based assay: anti-proliferative activity, Cell Counting Kit-8, 72 hours (HT-1197, negative control without MELK expression); settings: Homo sapiens, HT1197, 72 h, HT1197 cells (negative control, no MELK expression), 72 hours
How it was run: as §1

DU4475 cells = test: Cell-based assay: anti-proliferative activity, Cell Counting Kit-8, 72 hours (DU4475); settings: Homo sapiens, DU-4475, 72 h

Sequence of MELK (Q14680 whole entry, looked up): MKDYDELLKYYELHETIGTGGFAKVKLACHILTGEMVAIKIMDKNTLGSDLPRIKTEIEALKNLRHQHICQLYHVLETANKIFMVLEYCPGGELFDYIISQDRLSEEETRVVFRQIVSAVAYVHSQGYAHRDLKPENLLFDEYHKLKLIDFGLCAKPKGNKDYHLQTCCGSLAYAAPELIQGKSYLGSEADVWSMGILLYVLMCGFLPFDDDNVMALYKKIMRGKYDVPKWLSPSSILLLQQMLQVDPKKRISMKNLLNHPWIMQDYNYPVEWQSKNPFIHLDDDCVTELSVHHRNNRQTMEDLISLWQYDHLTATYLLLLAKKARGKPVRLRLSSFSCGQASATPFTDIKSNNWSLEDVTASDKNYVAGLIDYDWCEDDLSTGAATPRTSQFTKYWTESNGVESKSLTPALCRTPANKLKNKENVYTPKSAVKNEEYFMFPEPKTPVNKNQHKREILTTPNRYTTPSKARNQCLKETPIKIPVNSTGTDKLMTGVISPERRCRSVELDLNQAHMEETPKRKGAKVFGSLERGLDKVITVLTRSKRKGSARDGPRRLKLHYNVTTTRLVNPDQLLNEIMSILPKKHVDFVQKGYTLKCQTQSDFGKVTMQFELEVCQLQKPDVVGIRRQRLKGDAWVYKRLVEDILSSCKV

Structure (SMILES)	IC50 (MELK) [µM]	IC50 (T47D cells) [µM]	IC50 (A549 cells) [µM]	IC50 (HT-1197 cells) [µM]	IC50 (DU4475 cells) [µM]
CN(C)CCOc1ccc(Nc2c(C(=O)C3CC3)cnc3ccc(-c4cc(F)c(O)c(Cl)c4)cc23)cn1 [Example 710, (6-(3-Chloro-5-fluoro-4-hydroxyphenyl)-4-(6-(2-(dimethylamino)ethoxy)pyridin-3-ylamino)quinolin-3-yl)(cyclopropyl)methanone]	0.0069	0.15	0.09	2	0.083
COc1cc(-c2ccc3ncc(C(=O)C4CC4)c(Nc4ccc(N5CCC(N(C)C)C5)nc4)c3c2)cc(Cl)c1O (stereo not shown) [Example 689]	0.013	0.28	1.5	9.4	3.2
CN(C)C1CCN(C[C@H]2CC[C@H](Nc3c(C(=O)C4CC4)cnc4ccc(-c5cc(F)c(O)c(Cl)c5)cc34)CC2)C1 (stereo partly shown) [Example 662]	0.004	0.19	0.15	0.95	0.14
CCC(=O)c1cnc2ccc(-c3cc(Cl)c(O)c(OC)c3)cc2c1N[C@H]1CC[C@H](CN(C)C)CC1 [Example 713]	0.0024	0.2	0.18	4.9	0.15
CC(=O)c1cnc2ccc(-c3cc(Cl)c(O)c(Cl)c3)cc2c1N[C@@H]1CC[C@@H](CN2CCN(C)CC2)C1 [Example 728, 1-(6-(3,5-dichloro-4-hydroxyphenyl)-4-((1R,3R)-3-((4-methylpiperazin-1-yl)methyl)cyclopentylamino)quinolin-3-yl)ethanone]	0.0057	0.83	0.85	5.7	0.48
CN(C)CC(O)c1ccc(Nc2c(C(=O)C3CC3)cnc3ccc(-c4cc(Cl)c(O)c(Cl)c4)cc23)cc1 (stereo not shown) [Example 709, Cyclopropyl{6-(3,5-dichloro-4-hydroxyphenyl)-4-[4-(2-(dimethylamino)-1-hydroxyethyl)phenylamino]quinolin-3-yl}methanone]	0.0035	0.2	0.14	3.8	0.077
COc1cc(-c2ccc3ncc(C(=O)C4CC4)c(Nc4ccc(OCCN)nc4)c3c2)cc(Cl)c1O [Example 722, (4-(6-(2-aminoethoxy)pyridin-3-ylamino)-6-(3-chloro-4-hydroxy-5-methoxyphenyl)quinolin-3-yl)(cyclopropyl)methanone]	0.0043	0.19	0.32	2.3	0.19
CN(C)Cc1ccc(Nc2c(C(=O)C3CC3)cnc3ccc(-c4cc(Cl)c(O)c(Cl)c4)cc23)cn1 [Example 657, Cyclopropyl{6-(3,5-dichloro-4-hydroxyphenyl)-4-[6-((dimethylamino)methyl)pyridin-3-ylamino]quinolin-3-yl}methanone]	0.0089	0.31	0.18	2.8	0.098
COc1cc(-c2ccc3ncc(C(=O)C(C)C)c(Nc4ccc(CN(C)C)cc4)c3c2)cc(Cl)c1O [Example 640, 1-(6-(3-chloro-4-hydroxy-5-methoxyphenyl)-4-(4-((dimethylamino)methyl)phenylamino)quinolin-3-yl)-2-methylpropan-1-one]	0.027	0.54	0.61	0.82	0.52
O=C(c1cnc2ccc(-c3cc(Cl)c(O)c(Cl)c3)cc2c1N[C@H]1CC[C@H](CNCCF)CC1)C1CC1 [Example 700]	0.0015	0.47	0.47	2.2	0.25
CCC(=O)c1cnc2ccc(-c3cc(F)c(O)c(Cl)c3)cc2c1Nc1ccc(N2CCN(C)CC2)nc1 [Example 736, 1-(6-(3-chloro-5-fluoro-4-hydroxyphenyl)-4-(6-(4-methylpiperazin-1-yl)pyridin-3-ylamino)quinolin-3-yl)propan-1-one]	0.036	0.14	0.22	10	0.19
